{
  "source": "patent US20260015581A1",
  "about": "“METHODS FOR THE PRODUCTION OF RETINAL CELLS” (MIAMI UNIVERSITY, priority 2018, published 2026)",
  "data": [
    {"system": "PGP1-derived RPE", "test": "Small molecule screen for reprogramming of PGP1-derived RPE to neural retina (induction of fluorescent reporter expression)", "conditions": "40 μM; D0, D5 and D10 of treatment (FIG. 21)", "procedure": "A second small molecule screen tested 180 compounds at a concentration of 40 μM designed to target epigenetic pathways (from the Selleck Chemicals Epigenetic Compounds Library L1900).", "values": [
      {"compound": "BI 847325", "subsequent induction of eGFP expression (retinal ganglion cell reporter) in PGP1-derived RPE": "subsequently induces the expression of eGFP"}
    ]},
    {"system": "PGP1-derived RPE", "test": "Small molecule screen for reprogramming of PGP1-derived RPE to neural retina (induction of fluorescent reporter expression)", "conditions": "Selleck Chemicals Epigenetic Compounds Library L1900; 40 μM", "values": [
      {"compound": "O=C(O)c1ccc(O)c2ncccc12", "note": "[Carboxy-8-hydroxyquinoline]", "induction of Cerulean expression in PGP1-derived RPE": "showed evidence of inducing Cerulean expression"},
      {"compound": "COc1cc2c(Nc3ccc(NC(=O)c4ccccc4)cc3)ncnc2cc1OCCCN1CCOCC1", "note": "[ZM 447439]", "induction of Cerulean expression in PGP1-derived RPE": "showed evidence of inducing Cerulean expression"},
      {"compound": "BI 847325", "induction of Cerulean expression in PGP1-derived RPE": "showed evidence of inducing Cerulean expression"},
      {"compound": "Cc1c(CN2CCC(Nc3ncnc4sc(CC(F)(F)F)cc34)CC2)ccc2[nH]c(C#N)cc12", "note": "[MI 463]", "induction of Cerulean expression in PGP1-derived RPE": "showed evidence of inducing Cerulean expression"},
      {"compound": "C1=C/COCc2cc(ccc2OCCN2CCCC2)Nc2nccc(n2)-c2cccc(c2)COC/1", "note": "[Pacritinib]", "induction of Cerulean expression in PGP1-derived RPE": "showed evidence of inducing Cerulean expression"},
      {"compound": "CCn1cc(-c2cccc(C(F)(F)F)c2)c2sc(C(=N)NC3CCS(=O)(=O)CC3)cc2c1=O", "note": "[I-BRD9]", "induction of Cerulean expression in PGP1-derived RPE": "showed evidence of inducing Cerulean expression"},
      {"compound": "O=C(Nc1ccccc1-c1cn2c(CN3CC[C@@H](O)C3)csc2n1)c1ccc2ccccc2c1", "note": "[SSRT2183]", "induction of Cerulean expression in PGP1-derived RPE": "showed evidence of inducing Cerulean expression"},
      {"compound": "CN1CCN(c2ccc(-c3cccc(CN4CCOCC4)c3)cc2NC(=O)c2c[nH]c(=O)cc2C(F)(F)F)CC1", "note": "[OICR-9429]", "induction of Cerulean expression in PGP1-derived RPE": "showed evidence of inducing Cerulean expression"},
      {"compound": "CN(C)CCCNC(=O)c1ccc(-c2cc(O)c3ncccc3c2)cc1", "note": "[ML324]", "induction of Cerulean expression in PGP1-derived RPE": "showed evidence of inducing Cerulean expression"}
    ]},
    {"system": "PGP1-derived RPE", "test": "Small molecule screen for reprogramming of PGP1-derived RPE to neural retina (induction of fluorescent reporter expression)", "conditions": "first library of 127 compounds; 5-15 days of treatment; at least 9 different replicates; U0126 39 μM, SC 79 110 μM, KU 0063794 3 μM", "values": [
      {"compound": "COc1ccc(-c2ccc3c(N4CCOCC4)nc(N4C[C@@H](C)O[C@@H](C)C4)nc3n2)cc1CO", "note": "[KU 0063794]", "induction of Cerulean expression (blue fluorescent cells) in PGP1-derived RPE": "produced blue fluorescent cells"},
      {"compound": "N#CC(=C(/N)Sc1ccccc1N)/C(C#N)=C(\\N)Sc1ccccc1N", "note": "[U0126]", "induction of Cerulean expression (blue fluorescent cells) in PGP1-derived RPE": "produced blue fluorescent cells"},
      {"compound": "CCOC(=O)C1=C(N)Oc2ccc(Cl)cc2C1C(C#N)C(=O)OCC", "note": "(stereo not shown) [SC 79]", "induction of Cerulean expression (blue fluorescent cells) in PGP1-derived RPE": "produced blue fluorescent cells"}
    ]}
  ]
}
